What was measured:
Butyrylcholinesterase = Butyrylcholinesterase (Rattus norvegicus, UniProt Q9JKC1); assay: In vitro inhibitory concentration against butyrylcholinesterase was determined using rat serum homogenate
Acetylcholinesterase = molecular target: T1, Acetylcholinesterase (Rattus norvegicus, UniProt P37136)
T1 sequence (P37136 whole entry): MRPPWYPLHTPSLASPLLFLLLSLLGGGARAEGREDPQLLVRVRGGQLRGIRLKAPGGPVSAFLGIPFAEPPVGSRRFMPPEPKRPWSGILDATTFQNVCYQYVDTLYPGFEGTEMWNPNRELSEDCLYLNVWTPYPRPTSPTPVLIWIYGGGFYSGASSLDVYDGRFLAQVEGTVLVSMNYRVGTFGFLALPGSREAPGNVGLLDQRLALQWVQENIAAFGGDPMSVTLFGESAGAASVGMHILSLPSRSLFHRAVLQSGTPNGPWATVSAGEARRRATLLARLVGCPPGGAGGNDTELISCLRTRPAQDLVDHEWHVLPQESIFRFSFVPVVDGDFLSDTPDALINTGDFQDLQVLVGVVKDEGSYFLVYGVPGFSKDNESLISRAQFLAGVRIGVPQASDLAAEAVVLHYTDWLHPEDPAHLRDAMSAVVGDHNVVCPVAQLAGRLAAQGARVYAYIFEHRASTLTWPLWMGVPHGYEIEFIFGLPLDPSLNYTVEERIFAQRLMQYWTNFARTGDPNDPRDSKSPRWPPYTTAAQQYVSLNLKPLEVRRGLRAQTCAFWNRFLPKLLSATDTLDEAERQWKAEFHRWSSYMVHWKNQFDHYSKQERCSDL
Description: In vitro inhibitory concentration against rat cortex acetylcholinesterase

Chain of Butyrylcholinesterase (Q9JKC1 whole entry): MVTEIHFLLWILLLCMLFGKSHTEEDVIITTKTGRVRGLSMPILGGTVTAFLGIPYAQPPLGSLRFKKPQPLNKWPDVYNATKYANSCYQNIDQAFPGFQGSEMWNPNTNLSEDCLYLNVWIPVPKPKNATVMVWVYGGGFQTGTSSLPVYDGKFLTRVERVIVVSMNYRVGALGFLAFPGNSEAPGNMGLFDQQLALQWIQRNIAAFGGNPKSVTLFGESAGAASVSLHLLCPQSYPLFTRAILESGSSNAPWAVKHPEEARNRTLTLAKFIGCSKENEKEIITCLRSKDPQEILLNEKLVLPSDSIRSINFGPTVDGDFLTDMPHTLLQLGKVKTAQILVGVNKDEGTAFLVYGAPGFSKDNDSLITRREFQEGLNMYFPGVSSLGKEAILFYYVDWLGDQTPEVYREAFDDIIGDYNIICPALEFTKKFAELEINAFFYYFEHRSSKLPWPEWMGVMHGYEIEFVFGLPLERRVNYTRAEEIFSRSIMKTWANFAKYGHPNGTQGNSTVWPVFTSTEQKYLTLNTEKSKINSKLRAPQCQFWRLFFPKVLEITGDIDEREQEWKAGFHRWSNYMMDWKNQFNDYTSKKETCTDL

Row | Structure (SMILES) | IC50 (Butyrylcholinesterase) [µM] | IC50 (Acetylcholinesterase) [µM]
1 | COc1cc2c(cc1OC)C(=O)C(Oc1ccc(C(C)N(C)C)cc1)C2 (stereo not drawn) | 1370 | –
2 | COc1cc2c(cc1OC)C(=O)C(Oc1ccc(CN3CCOCC3)cc1)C2 (stereo not drawn) | 384 | 1.3
3 | COc1cc2c(cc1OC)C(=O)C(Oc1ccc(CN3CCCCC3)cc1)C2 (stereo not drawn) | 262 | 0.15
4 | COc1cc2c(cc1OC)C(=O)C(Oc1ccc(C(C)N3CCCCC3)cc1)C2 (stereo not drawn) | 176 | 0.13
5 | CCN(CC)Cc1ccc(OC2Cc3cc(OC)c(OC)cc3C2=O)cc1 (stereo not drawn) | 251 | 0.1
6 | COc1cc2c(cc1OC)C(=O)C(Oc1ccc(C(C)N3CCCC3)cc1)C2 (stereo not drawn) | 130 | 0.14
7 | COc1cc2c(cc1OC)C(=O)C(Oc1ccc(CN3CCCC3)cc1)C2 (stereo not drawn) | 84.3 | 0.05
8 | CCN(CC)C(C)c1cccc(OC2Cc3cc(OC)c(OC)cc3C2=O)c1 (stereo not drawn) | 199 | 1.36
9 | CCN(CC)Cc1cccc(OC2Cc3cc(OC)c(OC)cc3C2=O)c1 (stereo not drawn) | 190 | 2.28
10 | CCN(CC)C(C)c1ccc(OC2Cc3cc(OC)c(OC)cc3C2=O)cc1 (stereo not drawn) | 234 | 0.22
11 | COc1cc2c(cc1OC)C(=O)C(Oc1cccc(C(C)N3CCN(C)CC3)c1)C2 (stereo not drawn) | 252 | 17.6
12 | COc1cc2c(cc1OC)C(=O)C(Oc1cccc(CN3CCCCC3)c1)C2 (stereo not drawn) | 55.5 | 3.18
13 | COc1cc2c(cc1OC)C(=O)C(Oc1cccc(CN(C)C)c1)C2 (stereo not drawn) | 207 | –
14 | COc1cc2c(cc1OC)C(=O)C(Oc1cccc(CN3CCOCC3)c1)C2 (stereo not drawn) | 219 | –
15 | COc1cc2c(cc1OC)C(=O)C(Oc1cccc(C(C)N3CCCC3)c1)C2 (stereo not drawn) | 212 | 1.96
16 | COc1cc2c(cc1OC)C(=O)C(Oc1cccc(C(C)N3CCOCC3)c1)C2 (stereo not drawn) | 247 | –
17 | COc1cc2c(cc1OC)C(=O)C(Oc1cccc(CN3CCN(C)CC3)c1)C2 (stereo not drawn) | 209 | 6.41
18 | COc1cc2c(cc1OC)C(=O)C(Oc1ccc(CN3CCN(C)CC3)cc1)C2 (stereo not drawn) | 347 | 1.42
19 | COc1cc2c(cc1OC)C(=O)C(Oc1ccc(C(C)N3CCOCC3)cc1)C2 (stereo not drawn) | 346 | 3.14
20 | COc1cc2c(cc1OC)C(=O)C(Oc1ccc(C(C)N3CCN(C)CC3)cc1)C2 (stereo not drawn) | 393 | 2.98
21 | COc1cc2c(cc1OC)C(=O)C(Oc1cccc(C(C)N3CCCCC3)c1)C2 (stereo not drawn) | 158 | 3.58
22 | COc1cc2c(cc1OC)C(=O)C(Oc1cccc(CN3CCCC3)c1)C2 (stereo not drawn) | 39.5 | –
23 | COc1cc2c(cc1OC)C(=O)C(Oc1ccc(CN(C)C)cc1)C2 (stereo not drawn) | 1980 | 0.21
24 | COc1cc2c(cc1OC)C(=O)C(Oc1cccc(C(C)N(C)C)c1)C2 (stereo not drawn) | 288 | 0.82

Reference: ChEMBL document CHEMBL1142791, “Design, synthesis, and evaluation of 2-phenoxy-indan-1-one derivatives as acetylcholinesterase inhibitors” (Bioorg Med Chem Lett, 2005)
